Results on six compounds are retold here after ChEMBL document CHEMBL4371035, “Design, synthesis and biological evaluation of bifunctional inhibitors of membrane type 1 matrix metalloproteinase (MT1-MMP)” (Bioorg Med Chem, 2019).

In one series the target is T1, Interstitial collagenase (Homo sapiens, UniProt P03956).
T1 sequence (P03956 whole entry): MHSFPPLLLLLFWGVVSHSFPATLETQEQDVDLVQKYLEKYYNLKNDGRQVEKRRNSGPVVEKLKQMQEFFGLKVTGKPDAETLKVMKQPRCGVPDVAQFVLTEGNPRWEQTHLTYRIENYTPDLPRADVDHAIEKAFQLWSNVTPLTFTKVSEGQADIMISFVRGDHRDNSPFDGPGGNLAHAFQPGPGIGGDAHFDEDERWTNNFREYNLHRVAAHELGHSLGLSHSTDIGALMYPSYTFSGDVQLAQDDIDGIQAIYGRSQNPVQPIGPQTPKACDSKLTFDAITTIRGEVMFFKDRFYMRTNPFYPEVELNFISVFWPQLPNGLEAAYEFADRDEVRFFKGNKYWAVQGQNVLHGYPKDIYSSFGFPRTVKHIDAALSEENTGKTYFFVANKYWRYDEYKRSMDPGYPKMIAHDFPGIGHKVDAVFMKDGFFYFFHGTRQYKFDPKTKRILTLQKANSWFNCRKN
Description: Inhibition of recombinant human pro-MMP1 using Mca-Lys-Pro-Leu-Gly-Leu-Dap(Dnp)-Ala-Arg-NH2 as substrate preincubated for 3 hrs followed by substrate addition and measured every 10 secs for 15 mins in presence of APMA by fluorometric assay.

The target in series [1] is 72 kDa type IV collagenase (Homo sapiens, UniProt P08253). Description: Inhibition of recombinant human proMMP2 using Mca-Lys-Pro-Leu-Gly-Leu-Dap(Dnp)-Ala-Arg-NH2 as substrate preincubated for 3 hrs followed by substrate addition and measured every 10 secs for 15 mins in presence of APMA by fluorometric assay.
72 kDa type IV collagenase, sequence (P08253 whole entry): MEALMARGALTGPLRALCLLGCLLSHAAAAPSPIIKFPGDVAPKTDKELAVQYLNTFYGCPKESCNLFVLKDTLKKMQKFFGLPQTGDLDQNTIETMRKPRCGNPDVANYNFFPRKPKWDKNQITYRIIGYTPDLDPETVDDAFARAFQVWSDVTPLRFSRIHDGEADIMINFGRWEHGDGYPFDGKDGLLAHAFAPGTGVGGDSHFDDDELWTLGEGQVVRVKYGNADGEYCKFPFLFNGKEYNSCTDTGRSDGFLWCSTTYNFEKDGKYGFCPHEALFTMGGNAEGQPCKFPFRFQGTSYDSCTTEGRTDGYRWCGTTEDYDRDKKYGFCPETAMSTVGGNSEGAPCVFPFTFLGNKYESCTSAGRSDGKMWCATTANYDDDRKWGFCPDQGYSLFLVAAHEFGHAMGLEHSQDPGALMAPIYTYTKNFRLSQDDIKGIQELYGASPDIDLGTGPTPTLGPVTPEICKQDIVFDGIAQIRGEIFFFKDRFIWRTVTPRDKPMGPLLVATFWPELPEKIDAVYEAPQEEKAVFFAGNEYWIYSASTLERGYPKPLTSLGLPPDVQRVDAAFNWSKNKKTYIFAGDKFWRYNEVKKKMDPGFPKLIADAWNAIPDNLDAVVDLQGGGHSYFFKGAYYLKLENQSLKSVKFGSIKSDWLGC
The target in series [2] is Matrix metalloproteinase-9 (Homo sapiens, UniProt P14780). Description: Inhibition of recombinant human proMMP9 using Mca-Lys-Pro-Leu-Gly-Leu-Dap(Dnp)-Ala-Arg-NH2 as substrate preincubated for 3 hrs followed by substrate addition and measured every 10 secs for 15 mins in presence of APMA by fluorometric assay.
Matrix metalloproteinase-9, sequence (P14780 whole entry, the tested form may be a part): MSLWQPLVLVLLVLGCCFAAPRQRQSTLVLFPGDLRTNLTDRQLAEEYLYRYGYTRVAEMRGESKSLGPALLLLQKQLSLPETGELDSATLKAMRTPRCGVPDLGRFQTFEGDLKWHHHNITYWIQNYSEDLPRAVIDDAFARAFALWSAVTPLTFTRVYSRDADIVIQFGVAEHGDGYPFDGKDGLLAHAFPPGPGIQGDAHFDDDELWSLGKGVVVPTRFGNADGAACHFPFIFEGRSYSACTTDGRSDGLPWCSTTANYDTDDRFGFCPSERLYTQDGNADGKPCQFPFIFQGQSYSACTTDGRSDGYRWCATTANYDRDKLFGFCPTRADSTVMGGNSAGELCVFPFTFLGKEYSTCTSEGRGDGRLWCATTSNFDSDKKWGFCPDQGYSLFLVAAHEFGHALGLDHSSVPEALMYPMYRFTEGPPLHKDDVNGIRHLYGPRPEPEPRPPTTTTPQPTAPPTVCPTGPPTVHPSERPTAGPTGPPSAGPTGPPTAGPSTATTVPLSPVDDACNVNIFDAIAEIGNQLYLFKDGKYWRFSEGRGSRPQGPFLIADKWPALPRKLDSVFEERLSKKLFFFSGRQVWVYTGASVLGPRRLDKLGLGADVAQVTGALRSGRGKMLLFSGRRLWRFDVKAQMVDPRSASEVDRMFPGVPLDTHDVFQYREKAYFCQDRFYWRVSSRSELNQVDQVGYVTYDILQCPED
Series [3] deals with T2, Matrix metalloproteinase-14 (Homo sapiens, UniProt P50281). Put plainly: Inhibition of recombinant human MT1-MMP catalytic domain using Mca-Lys-Pro-Leu-Gly-Leu-Dap(Dnp)-Ala-Arg-NH2 as substrate preincubated for 3 hrs followed by substrate addition and measured every 10 secs for 15 min by fluorometric assay.
The nature of series [4]: Aqueous solubility of the compound. The format is physicochemical. To be noted: water (aqueous).
Another series has as its system HT-1080. Put plainly: Cytotoxicity against human HT1080 cells at 10 to 50 uM after 4 hrs by MTS assay. The format is cell-based. To be noted: ht-1080, 4 h.
The target of series [5] is T2, Matrix metalloproteinase-14. Description: Inhibition of MT1-MMP-mediated proMMP-2 activation in human HT1080 cells stimulated with type I collagen for 24 hrs followed by compound addition at 1 to 10 uM and measured after 24 hrs by gelatin zymography assay. It is filed as cell-based.
The target is the same in series [6]. Put plainly: Inhibition of MT1-MMP-mediated proMMP-2 activation in human HT1080 cells stimulated with type I collagen for 24 hrs followed by compound addition assessed as increase in proMT1-MMP (65 KDa) level at 1 to 10 uM and measured after 24 hrs by Western blot analysis. It is filed as cell-based. In general terms: A western blot detects proteins with antibodies after separation by electrophoresis.

The target is the same in series [7]. Put plainly: Inhibition of MT1-MMP mediated collagenolytic activity in human HT1080 cells stimulated with type I collagen for 48 hrs followed by compound addition at 1 to 10 uM and measured after 48 hrs by Coomassie Blue staining-based collagen film degradation assay. The format is cell-based.
The target is the same in series [8]. Description: Inhibition of MT1-MMP-mediated collagen invasion in human HT1080 cells attached to gelatin-coated Cytodex 3 microcarrier beads assessed as cell migration out from the bead surface into collagen matrix at 1 to 10 uM and measured after overnight incubation by microcarriers beads invasion assay. It is filed as cell-based.
For series [9] the target is unchanged. Description: Inhibition of MT1-MMP-mediated proMMP-2 activation in human HT1080 cells stimulated with type I collagen for 24 hrs followed by compound addition at <0.1 uM and measured after 24 hrs by gelatin zymography assay. The format is cell-based.
For series [10] the target is unchanged. Description: Inhibition of MT1-MMP-mediated proMMP-2 activation in human HT1080 cells stimulated with type I collagen for 24 hrs followed by compound addition assessed as increase in active MT1-MMP (55 KDa) level at 1 to 10 uM and measured after 24 hrs by Western blot analysis. It is filed as cell-based.
The target is the same in series [11]. As to conditions: 0.1 to 10 uM.
Description: Inhibition of MT1-MMP-mediated proMMP-2 activation in human HT1080 cells stimulated with type I collagen for 24 hrs followed by compound addition at 0.1 to 10 uM and measured after 24 hrs by gelatin zymography assay
For series [12] the target is unchanged. As to conditions: 0.01 uM.
Description: Inhibition of MT1-MMP-mediated proMMP-2 activation in human HT1080 cells stimulated with type I collagen for 24 hrs followed by compound addition at 0.01 uM and measured after 24 hrs by gelatin zymography assay
Series [13] has the same target. As to conditions: 1 to 10 uM.
Description: Inhibition of MT1-MMP-mediated proMMP-2 activation in human HT1080 cells stimulated with type I collagen for 24 hrs followed by compound addition assessed as reduction in processed form of MT1-MMP (40 KDa) level at 1 to 10 uM and measured after 24 hrs by Western blot analysis
For series [14] the target is unchanged. To be noted: 10 uM.
Description: Inhibition of MT1-MMP mediated collagenolytic activity in human HT1080 cells stimulated with type I collagen for 48 hrs followed by compound addition at 10 uM and measured after 48 hrs by Coomassie Blue staining-based collagen film degradation assay
Series [15] shares this target. Put plainly: Inhibition of MT1-MMP-mediated proMMP-2 activation in human HT1080 cells stimulated with type I collagen for 24 hrs followed by compound addition assessed as increase in proMT1-MMP (65 KDa) level at 0.01 to 10 uM and measured after 24 hrs by Western blot analysis. It is filed as cell-based.
Series [16] has the same target. As to conditions: 10 uM. The source holds these as a separate data set.
Description: Inhibition of MT1-MMP-mediated proMMP-2 activation in human HT1080 cells stimulated with type I collagen for 24 hrs followed by compound addition at 10 uM and measured after 24 hrs by gelatin zymography assay
Series [17] shares this target. As to conditions: 0.01 to 10 uM.
Description: Inhibition of MT1-MMP-mediated proMMP-2 activation in human HT1080 cells stimulated with type I collagen for 24 hrs followed by compound addition assessed as increase in active MT1-MMP (55 KDa) level at 0.01 to 10 uM and measured after 24 hrs by Western blot analysis
The target is the same in series [18]. To be noted: 0.01 to 10 uM. The source holds these as a separate data set.
Description: Inhibition of MT1-MMP-mediated proMMP-2 activation in human HT1080 cells stimulated with type I collagen for 24 hrs followed by compound addition assessed as reduction in processed form of MT1-MMP (40 KDa) level at 0.01 to 10 uM and measured after 24 hrs by Western blot analysis

The source made the active and inactive calls. The rule behind the calls is not given here. Where only a bound is given, the exact number is not on record here.

Consider `COc1ccc(-c2ccc(S(=O)(=O)N(CCNC(=O)c3cccc(C(=O)NCCN([C@H](CCN4C(=O)c5ccccc5C4=O)C(=O)NO)S(=O)(=O)c4ccc(-c5ccc(OC)cc5)cc4)c3)[C@H](CCN3C(=O)c4ccccc4C3=O)C(=O)NO)cc2)cc1`, for which the IC50 (usually the concentration that gives 50% inhibition) came out at 150 nM on Interstitial collagenase, 13 nM in [1], 14 nM in [2] and 14 nM in series [3]. The solubility (usually the dissolved amount per volume that the medium holds) in series [4] is more than 1000 µM. Moreover, the Activity result with HT-1080 is given as “Non-Toxic”. For the same compound, the inhibition entry in series [5], in [7] and in series [8] was “Active” throughout. In addition, the inhibition result in [6] and in series [10] was “Dose-dependent effect” in each case. Further, the inhibition (commonly the percentage by which the read-out fell short of the control) in series [9] was “inactive”.
For `O=C(NCC[C@@H](NS(=O)(=O)c1ccc(-c2ccccc2)cc1)C(=O)NO)c1cccc(C(=O)NCC[C@@H](NS(=O)(=O)c2ccc(-c3ccccc3)cc2)C(=O)NO)c1`, the IC50 amounted to 870 nM on Interstitial collagenase, 1.2 nM in series [1], 1.25 nM in [2] and 80 nM in series [3].
The like results for `COc1ccc(-c2ccc(S(=O)(=O)N(CCNC(=O)CCCNC(=O)c3cccc(C(=O)NCCCC(=O)NCCN([C@H](CCN4C(=O)c5ccccc5C4=O)C(=O)NO)S(=O)(=O)c4ccc(-c5ccc(OC)cc5)cc4)c3)[C@H](CCN3C(=O)c4ccccc4C3=O)C(=O)NO)cc2)cc1` were, in that order, 45 nM, 4.1 nM, 2.1 nM and 7 nM.
For the compound `CNC(=O)[C@H](Cc1c[nH]c2ccccc12)NC(=O)[C@@H](CC(=O)NO)CC(C)C`, the inhibition entry in [6], in [10], in series [11] and in [13] was “Active” in each case. Further, in [12], the inhibition entry is “inactive”. In series [14], this compound displayed an inhibition of 100%.
Turning to `COc1ccc(-c2ccc(S(=O)(=O)N(OC(C)C)[C@H](CCN3C(=O)c4ccccc4C3=O)C(=O)NO)cc2)cc1`, the IC50 on Interstitial collagenase is 170 nM. Besides, the Activity entry in the series on HT-1080 is “Toxic”. Further, the inhibition entry in series [7], in [8] and in series [16] was “Active” each time. In addition, the inhibition result in series [15], in [17] and in series [18] was “inactive” in each case.
On to `O=C(CCCNC(=O)c1cccc(C(=O)NCCCC(=O)NCC[C@@H](NS(=O)(=O)c2ccc(-c3ccccc3)cc2)C(=O)NO)c1)NCC[C@@H](NS(=O)(=O)c1ccc(-c2ccccc2)cc1)C(=O)NO`, for which the IC50 at Interstitial collagenase was 155 nM; in series [1], 1.6 nM; in series [2], 8.7 nM; in series [3], 41 nM.
